Measured values published in the supplement of paper PMC10307832.

Columns and labels:
Experiment in all cases: relative viability (nuclei count vs DMSO), 5 days (fraction); higher = more cells survive
Dovitinib + Vorinostat = compound: CN1CCN(c2ccc3nc(-c4c(N)c5c(F)cccc5[nH]c4=O)[nH]c3c2)CC1 [Dovitinib] + O=C(CCCCCCC(=O)Nc1ccccc1)NO [Vorinostat] (partner 1 µM)
Method in brief: (§1)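 Relative viability equals treated-well nuclei counts divided by vehicle-well nuclei counts. Counts came from 4× images of lung cancer cell lines grown in 1536-well plates for 5 days after pin-tool dosing on the day after seeding. Dosing used one drug alone or a fixed anchor-drug dose plus five library-drug doses (not always all listed) in √10 steps, and values are medians of duplicate plates.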

Dovitinib + Pemetrexed = compound: CN1CCN(c2ccc3nc(-c4c(N)c5c(F)cccc5[nH]c4=O)[nH]c3c2)CC1 [Dovitinib] + Nc1nc2[nH]cc(CCc3ccc(C(=O)N[C@@H](CCC(=O)O)C(=O)O)cc3)c2c(=O)[nH]1 [Pemetrexed] (partner 0.2 µM)
Method in brief: as §1

Dovitinib + Dasatinib = compound: CN1CCN(c2ccc3nc(-c4c(N)c5c(F)cccc5[nH]c4=O)[nH]c3c2)CC1 [Dovitinib] + Cc1nc(Nc2ncc(C(=O)Nc3c(C)cccc3Cl)s2)cc(N2CCN(CCO)CC2)n1 [Dasatinib] (partner 0.075 µM)
Method in brief: as §1

Dovitinib + Palbociclib = compound: CN1CCN(c2ccc3nc(-c4c(N)c5c(F)cccc5[nH]c4=O)[nH]c3c2)CC1 [Dovitinib] + CC(=O)c1c(C)c2cnc(Nc3ccc(N4CCNCC4)cn3)nc2n(C2CCCC2)c1=O [Palbociclib] (partner 0.5 µM)
Method in brief: as §1

Row | Cell Line | relative viability (Dovitinib + Vorinostat; first compound 0.02 µM) | relative viability (Dovitinib + Vorinostat; first compound 0.06325 µM) | relative viability (Dovitinib + Vorinostat; first compound 0.2 µM) | relative viability (Dovitinib + Vorinostat; first compound 0.6325 µM) | relative viability (Dovitinib + Vorinostat; first compound 2 µM) | relative viability (Dovitinib + Pemetrexed; first compound 0.02 µM) | relative viability (Dovitinib + Pemetrexed; first compound 0.06325 µM) | relative viability (Dovitinib + Pemetrexed; first compound 0.2 µM) | relative viability (Dovitinib + Pemetrexed; first compound 0.6325 µM) | relative viability (Dovitinib + Pemetrexed; first compound 2 µM) | relative viability (Dovitinib + Dasatinib; first compound 0.02 µM) | relative viability (Dovitinib + Dasatinib; first compound 0.06325 µM) | relative viability (Dovitinib + Dasatinib; first compound 0.2 µM) | relative viability (Dovitinib + Dasatinib; first compound 0.6325 µM) | relative viability (Dovitinib + Dasatinib; first compound 2 µM) | relative viability (Dovitinib + Palbociclib; first compound 0.02 µM) | relative viability (Dovitinib + Palbociclib; first compound 0.06325 µM) | relative viability (Dovitinib + Palbociclib; first compound 0.2 µM) | relative viability (Dovitinib + Palbociclib; first compound 0.6325 µM) | relative viability (Dovitinib + Palbociclib; first compound 2 µM)
1 | NCI-H441 | 0.76 | 0.795 | 0.849 | 0.628 | 0.772 | 0.257 | 0.266 | 0.296 | 0.271 | 0.24 | 0.708 | 0.556 | 0.675 | 0.568 | 0.63 | 0.22 | 0.195 | 0.212 | 0.221 | 0.194
2 | NCI-H460 | 0.682 | 0.77 | 0.729 | 0.711 | 0.711 | 0.0606 | 0.0581 | 0.0649 | 0.0683 | 0.0626 | 0.407 | 0.489 | 0.555 | 0.505 | 0.476 | 0.147 | 0.226 | 0.159 | 0.163 | 0.142
3 | NCI-H520 | 0.765 | 0.698 | 0.62 | 0.656 | 0.643 | 0.687 | 0.683 | 0.615 | 0.596 | 0.635 | 0.165 | 0.188 | 0.235 | 0.179 | 0.218 | 0.206 | 0.213 | 0.214 | 0.266 | 0.162
4 | NCI-H522 | 0.811 | 0.848 | 0.923 | 0.837 | 1.01 | 1.05 | 1.03 | 1.22 | 0.949 | 1.02 | 0.857 | 0.867 | 0.93 | 0.706 | 0.887 | 1.07 | 1.05 | 0.972 | 1.19 | 1.06
5 | NCI-H647 | 0.52 | 0.658 | 0.659 | 0.434 | 0.851 | 0.194 | 0.189 | 0.154 | 0.191 | 0.177 | 0.151 | 0.152 | 0.209 | 0.171 | 0.21 | 0.337 | 0.427 | 0.378 | 0.402 | 0.431
6 | NCI-H650 | 0.368 | 0.414 | 0.58 | 0.395 | 0.774 | 0.908 | 0.856 | 0.898 | 0.983 | 0.956 | 0.48 | 0.383 | 0.49 | 0.5 | 0.432 | 0.321 | 0.333 | 0.359 | 0.317 | 0.357
7 | NCI-H661 | 0.733 | 0.837 | 0.826 | 0.938 | 0.843 | 0.888 | 0.927 | 0.935 | 0.878 | 0.949 | 0.85 | 0.829 | 1.01 | 0.984 | 0.936 | 0.414 | 0.453 | 0.429 | 0.426 | 0.432
8 | NCI-H838 | 0.711 | 0.742 | 0.706 | 0.716 | 0.677 | 0.262 | 0.277 | 0.229 | 0.234 | 0.265 | 0.293 | 0.269 | 0.31 | 0.273 | 0.288 | 0.231 | 0.209 | 0.217 | 0.217 | 0.228
9 | NCI-H1355 | 0.671 | 0.638 | 0.628 | 0.695 | 0.704 | 1.08 | 0.945 | 1.16 | 1.1 | 1.1 | 0.678 | 0.673 | 0.723 | 0.744 | 0.771 | 0.416 | 0.41 | 0.465 | 0.397 | 0.415
10 | NCI-H1395 | 0.678 | 0.622 | 0.787 | 0.811 | 0.924 | 0.91 | 0.807 | 0.933 | 0.911 | 1.02 | 0.448 | 0.423 | 0.437 | 0.402 | 0.425 | 0.608 | 0.575 | 0.661 | 0.605 | 0.652
11 | NCI-H1437 | 0.884 | 0.847 | 0.9 | 0.803 | 0.745 | 0.293 | 0.327 | 0.31 | 0.288 | 0.308 | 0.414 | 0.397 | 0.353 | 0.39 | 0.452 | 0.305 | 0.301 | 0.321 | 0.32 | 0.321
12 | NCI-H1650 | 0.569 | 0.432 | 0.785 | 0.703 | 0.554 | 0.404 | 0.347 | 0.395 | 0.339 | 0.354 | 0.335 | 0.26 | 0.365 | 0.348 | 0.384 | 0.392 | 0.338 | 0.328 | 0.349 | 0.386
13 | NCI-H1651 | 0.491 | 0.593 | 0.539 | 0.597 | 0.543 | 0.553 | 0.544 | 0.563 | 0.64 | 0.544 | 0.388 | 0.43 | 0.484 | 0.469 | 0.486 | 0.538 | 0.532 | 0.526 | 0.53 | 0.549
14 | NCI-H1666 | 1.15 | 0.919 | 1.11 | 1.04 | 1.05 | 0.913 | 0.863 | 0.766 | 0.813 | 0.785 | 0.767 | 0.839 | 0.845 | 0.799 | 0.762 | 0.698 | 0.657 | 0.677 | 0.625 | 0.669
15 | NCI-H1734 | 0.832 | 0.773 | 0.784 | 0.785 | 0.875 | 0.443 | 0.442 | 0.414 | 0.403 | 0.418 | 0.431 | 0.501 | 0.436 | 0.439 | 0.452 | 0.371 | 0.387 | 0.355 | 0.338 | 0.416
16 | NCI-H1755 | 0.798 | 0.83 | 0.884 | 0.935 | 0.776 | 0.432 | 0.382 | 0.433 | 0.4 | 0.423 | 0.446 | 0.388 | 0.45 | 0.393 | 0.443 | 0.47 | 0.427 | 0.479 | 0.463 | 0.471
